Patent US9708314B2, “Heterocyclic amide compound” (NISSAN CHEMICAL INDUSTRIES, LTD., priority 2013, dated 2017)

Tests used:
Assay type in all cases: in vivo
[1] = system: Echinochloa crus-galli var. crus-galli; assay: Test Example 3: herbicidal effect by application to foliage (Wagner pot, water depth 0.1-0.5 cm); conditions: Nineteenth Table; application to foliage; application herbicide amount 320 g/ha
In short: (§1)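 Foliar spray, 14-day-old plants, emulsion diluted to target g/ha; rated 3 wk post-application, 0–5 scale (0 ≤5%, 5 ≥90% herbicidal ratio). Greenhouse 25–30 °C, alluvial soil.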

[2] = system: Cyperus difformis; assay: as above; conditions: Nineteenth Table; application to foliage; application herbicide amount 320 g/ha
In short: as §1

[3] = system: directly sowed Oryza sativa; assay: Test Example 4: effect on crop by application to foliage (diluvial soil, plastic box); conditions: 320 g/ha; for effect on crop, d (directly sowed Oryza sativa): application to foliage
In short: (§2)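 Greenhouse plants (25° C. to 30° C., 14 d, diluvial soil) receive a foliar spray of water-diluted emulsifiable formulation at defined g/ha. Grading after 3 weeks uses a six-step herbicidal-ratio scale, with 4 covering 70% to <90% and 1 covering 5% to <20%.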

[4] = system: Zea mays; assay: as above; conditions: foliage application, 320 g/ha
In short: as §2

[5] = system: Brassica campestris L.; assay: as above; conditions: 320 g/ha; for effect on crop, g (Brassica campestris L.): application to foliage
In short: as §2

[6] = system: Triticum aestivum; assay: as above; conditions: 320 g/ha; for effect on crop, e (Triticum aestivum): application to foliage
In short: as §2

[7] = system: Glycine max; assay: as above; conditions: 320 g/ha; for effect on crop, c (Glycine max): application to foliage
In short: as §2

[8] = system: Beta vulgaris ssp. vulgaris; assay: as above; conditions: 320 g/ha; for effect on crop, f (Beta vulgaris ssp. vulgaris): application to foliage
In short: as §2

[9] = system: Leptochloa chinensis; assay: Test Example 3: herbicidal effect by application to foliage (Wagner pot, water depth 0.1-0.5 cm); conditions: Nineteenth Table; application to foliage; application herbicide amount 320 g/ha
In short: as §1

Row | SMILES | H (herbicidal effect grade) [1] | E (herbicidal effect grade) [2] | d (directly sowed Oryza sativa) effect on crop grade ([3]; foliage application) | b (Zea mays) effect on crop grade [4] | g (Brassica campestris L.) effect on crop grade ([5]; foliage application) | e (Triticum aestivum) effect on crop grade ([6]; foliage application) | c (Glycine max) effect on crop grade ([7]; foliage application) | f (Beta vulgaris ssp. vulgaris) effect on crop grade ([8]; foliage application) | D (herbicidal effect grade) [9] | effect on crop, d (directly sowed Oryza sativa) [3] | effect on crop, g (Brassica campestris L.) [5] | effect on crop, e (Triticum aestivum) [6] | effect on crop, c (Glycine max) [7] | effect on crop, f (Beta vulgaris ssp. vulgaris) [8]
1 | CCOC(=O)Cc1nnc2c(C(=O)Nc3nnnn3C)ccc(C(F)(F)F)n12 [2-040] | 4 (Herbicidal ratio of 70% or more and less than 90%) | 5 (Herbicidal ratio of 90% or more (almost completely withered)) | 4 (Herbicidal ratio of 70% or more and less than 90%) | 4 (Herbicidal ratio of 70% or more and less than 90%) | 3 (Herbicidal ratio of 40% or more and less than 70%) | 2 (Herbicidal ratio of 20% or more and less than 40%) | 1 (Herbicidal ratio of 5% or more and less than 20%) | 5 (Herbicidal ratio of 90% or more (almost completely withered)) |  |  |  |  |  | 
2 | Cn1nnnc1NC(=O)c1ccc(C(F)(F)F)n2c(NCC(F)(F)F)nnc12 [2-081] | 5 (Herbicidal ratio of 90% or more (almost completely withered)) | 5 (Herbicidal ratio of 90% or more (almost completely withered)) |  |  |  |  |  |  | 5 (Herbicidal ratio of 90% or more (almost completely withered)) | 3 (Herbicidal ratio of 40% or more and less than 70%) | 4 (Herbicidal ratio of 70% or more and less than 90%) | 2 (Herbicidal ratio of 20% or more and less than 40%) | 0 (Herbicidal ratio of 5% or less (almost no effect)) | 5 (Herbicidal ratio of 90% or more (almost completely withered))
3 | CC(C)N(C)c1nnc2c(C(=O)Nc3nnnn3C)ccc(C(F)(F)F)n12 [2-082] | 5 (Herbicidal ratio of 90% or more (almost completely withered)) | 5 (Herbicidal ratio of 90% or more (almost completely withered)) |  |  |  |  |  |  | 5 (Herbicidal ratio of 90% or more (almost completely withered)) | 5 (Herbicidal ratio of 90% or more (almost completely withered)) | 5 (Herbicidal ratio of 90% or more (almost completely withered)) | 4 (Herbicidal ratio of 70% or more and less than 90%) | 1 (Herbicidal ratio of 5% or more and less than 20%) | 5 (Herbicidal ratio of 90% or more (almost completely withered))
4 | CN(c1nnc2c(C(=O)Nc3nnnn3C)ccc(C(F)(F)F)n12)C1CCCCC1 [2-083] | 4 (Herbicidal ratio of 70% or more and less than 90%) | 5 (Herbicidal ratio of 90% or more (almost completely withered)) |  |  |  |  |  |  | 4 (Herbicidal ratio of 70% or more and less than 90%) | 4 (Herbicidal ratio of 70% or more and less than 90%) | 1 (Herbicidal ratio of 5% or more and less than 20%) | 0 (Herbicidal ratio of 5% or less (almost no effect)) | 0 (Herbicidal ratio of 5% or less (almost no effect)) | 5 (Herbicidal ratio of 90% or more (almost completely withered))
5 | Cn1nnnc1NC(=O)c1ccc(C(F)(F)F)n2c(SCC3CC3)nnc12 [2-084] | 5 (Herbicidal ratio of 90% or more (almost completely withered)) | 5 (Herbicidal ratio of 90% or more (almost completely withered)) |  |  |  |  |  |  | 5 (Herbicidal ratio of 90% or more (almost completely withered)) | 3 (Herbicidal ratio of 40% or more and less than 70%) | 3 (Herbicidal ratio of 40% or more and less than 70%) | 3 (Herbicidal ratio of 40% or more and less than 70%) | 1 (Herbicidal ratio of 5% or more and less than 20%) | 5 (Herbicidal ratio of 90% or more (almost completely withered))
6 | Cn1nnnc1NC(=O)c1ccc(C(F)(F)F)n2c(SCC3CCCO3)nnc12 (stereo not drawn) [2-085] | 5 (Herbicidal ratio of 90% or more (almost completely withered)) | 4 (Herbicidal ratio of 70% or more and less than 90%) |  |  |  |  |  |  | 5 (Herbicidal ratio of 90% or more (almost completely withered)) | 5 (Herbicidal ratio of 90% or more (almost completely withered)) | 4 (Herbicidal ratio of 70% or more and less than 90%) | 3 (Herbicidal ratio of 40% or more and less than 70%) | 2 (Herbicidal ratio of 20% or more and less than 40%) | 5 (Herbicidal ratio of 90% or more (almost completely withered))
7 | Cn1nnnc1NC(=O)c1ccc(C(F)(F)F)n2c(SCC#N)nnc12 [2-086] | 5 (Herbicidal ratio of 90% or more (almost completely withered)) | 4 (Herbicidal ratio of 70% or more and less than 90%) |  |  |  |  |  |  | 5 (Herbicidal ratio of 90% or more (almost completely withered)) | 4 (Herbicidal ratio of 70% or more and less than 90%) | 3 (Herbicidal ratio of 40% or more and less than 70%) | 2 (Herbicidal ratio of 20% or more and less than 40%) | 0 (Herbicidal ratio of 5% or less (almost no effect)) | 5 (Herbicidal ratio of 90% or more (almost completely withered))
8 | Cn1nnnc1NC(=O)c1ccc(C(F)(F)F)n2c(SCC(F)(F)F)nnc12 [2-087] | 5 (Herbicidal ratio of 90% or more (almost completely withered)) | 5 (Herbicidal ratio of 90% or more (almost completely withered)) |  |  |  |  |  |  | 5 (Herbicidal ratio of 90% or more (almost completely withered)) | 3 (Herbicidal ratio of 40% or more and less than 70%) | 3 (Herbicidal ratio of 40% or more and less than 70%) | 2 (Herbicidal ratio of 20% or more and less than 40%) | 0 (Herbicidal ratio of 5% or less (almost no effect)) | 5 (Herbicidal ratio of 90% or more (almost completely withered))
9 | CCN(CC)c1nnc2c(C(=O)Nc3nnnn3C)ccc(C(F)(F)F)n12 [2-089] | 4 (Herbicidal ratio of 70% or more and less than 90%) | 4 (Herbicidal ratio of 70% or more and less than 90%) |  |  |  |  |  |  | 5 (Herbicidal ratio of 90% or more (almost completely withered)) | 4 (Herbicidal ratio of 70% or more and less than 90%) | 4 (Herbicidal ratio of 70% or more and less than 90%) | 0 (Herbicidal ratio of 5% or less (almost no effect)) | 0 (Herbicidal ratio of 5% or less (almost no effect)) | 5 (Herbicidal ratio of 90% or more (almost completely withered))
